Assay results from patent publication US20060240057A1, “Termiticide compositions” (priority 2003, published 2006).
Read-outs that look alike come from different tables or passages of the source.

How the values were obtained:
[1] = test system: termite (Reticulitermes flavipes) workers; test: Termite mortality by soil applications of combinations of bifenthrin and acetamiprid (soil column in glass tube); format: in vivo; details: soil application, read-out: Percent Mortality; for mortality at 500 ppm: Acetamiprid @ 500 ppm; for mortality at 60 ppm: Bifenthrin @ 60 ppm
Experimental: (§1) Test compositions made up of Talstar® Termiticide/Insecticide and a 70% wettable powder of acetamiprid in distilled water were prepared that provided appropriate rates of application of combinations of bifenthrin and acetamiprid, as well as bifenthrin and acetamiprid alone.
Glass tubing, 13 mm in diameter, was then cut into 20 cm sections in sufficient quantity to conduct the test. Each […] section of tubing was marked at 5 cm, 8 cm, and 18 cm distances from one end of the tube designated as the bottom. Each section of tubing was packed with a sandy soil (3% wt/wt moisture content) by first placing a section of a 1 cm diameter wooden dowel into the bottom of the glass tube up to the 8 cm marking, then introducing approximately 2 cm of soil into the other end of the tube designated as the top. The soil was then gently packed into the tube from the top using a second section of the 1 cm diameter wooden dowel. The process was repeated using 2 cm aliquots of soil until the soil level was adjacent to the 18 cm marking, thereby providing a column of soil 10 cm in height. An agar plug, which was formed in a section of the 13 mm diameter glass tubing of the type used to conduct these tests, was cut into 3 cm sections. A 3 cm section of agar was then gently pushed into the bottom of each tube containing the soil until the agar plug firmly touched the soil at the 8 cm marking, thereby creating a 5 cm void in the bottom of each section of tubing. Following placement of the agar plugs in each section of tubing; two sections of applicator sticks cut in 6 cm lengths were inserted into the bottom end of each tube thereby forcing about 1 cm of each stick into the agar plug to hold the agar plug in place. Plastic caps, with an inside diameter of 13 mm and holes drilled in their centers, were placed on the bottom ends of each of the sections of tubing. A sharpened applicator stick was then inserted into the hole in each plastic cap through the agar plug to the intersection of the agar plug and the soil. The applicator stick was then gently removed in a rotating manner to provide a means for a free flow of liquid through the soil. Each section of tubing was then stood upright, and 0.5 niL aliquots of each suspension of bifenthrin, acetamiprid or combinations thereof, as prepared above, were pipetted onto the top of the soil. Upon application of the test suspensions the top of each section of tubing was covered with a small piece of aluminum foil. The tubes were then allowed to stand for about 20 hours to allow movement of the termiticide(s) downward into the soil. After this time a plastic cap of 13 mm inside diameter was placed on the top of each section of tubing. The plastic caps with the holes drilled in their centers were removed from the bottom of each section of tubing, and a piece of 0.5 cm×4 cm filter paper was then placed between the two sections of applicator sticks. Fifty termite (Reticulitermes flavipes) workers were then inserted into the 5 cm void in the bottom of each section of tubing. New plastic caps without holes drilled in their centers were placed on the bottom of each section of tubing. The sections of tubing were then stored in an upright position, with the termites located below the soil. At 1, 3, 6, 8, 10, 13, 15, 17, 20, and 22 days after treatment (DAT), termite mortality was measured.

[2] = test system: termites (Reticulitermes flavipes); test: Termite mortality by direct application (track sprayer) of combinations of bifenthrin and acetamiprid to termites; format: in vivo; details: for mortality at 100 ppm / mortality at 200 ppm / mortality at 10 ppm / mortality at 50 ppm: Reticulitermes flavipes, read-out: Percent Mortality
Experimental: as §1
Solutions of the test materials were applied directly to 50 termites (Reticulitermes flavipes) per petri plate using a track sprayer calibrated to deliver 1.2 ml per petri plate at 40 psi. After application, petri dishes with treated termites were inverted onto fresh petri plates containing dry filter paper. After all applications were completed, termites were then transferred to petri dishes containing moist soil with cardboard as a food source. Expired termites were removed at each reading. At 0 hours, 1 hour, 2 hours, 1 day, and 2 days after treatment (HAT or DAT, respectively), termite mortality was measured. The following calculation determined whether the combination treatments provided enhanced activity over what would be expected based on the activity of each active ingredient separately: [formula]
A and B refer to the two separate treatments of two different active ingredients at specific rates.

`C/C(=N\C#N)N(C)Cc1ccc(Cl)nc1` [Acetamiprid, acetamiprid] was tested, and the mortality at 500 ppm ([1]; 24 h, 1 DAT) was 5%, the mortality at 500 ppm ([1]; 72 h, 3 DAT) was 84% and the mortality at 500 ppm ([1]; 144 h, 6 DAT) was 100%. It also gave a mortality at 500 ppm ([1]; 192 h, 8 DAT) of 100%, a mortality at 500 ppm ([1]; 240 h, 10 DAT) of 100% and a mortality at 500 ppm ([1]; 312 h, 13 DAT) of 100%. For the same compound, the mortality at 500 ppm ([1]; 360 h, 15 DAT) was 100%, the mortality at 500 ppm ([1]; 408 h, 17 DAT) was 100% and the mortality at 500 ppm ([1]; 480 h, 20 DAT) was 100%. The mortality at 500 ppm ([1]; 528 h, 22 DAT) was 100%, the “Percent Mortality” value ([2]; Acetamiprid @ 100 ppm, 1 HAT) was 0% and the “Percent Mortality” value ([2]; Acetamiprid @ 100 ppm, 2 HAT) was 0%. The “Percent Mortality” value ([2]; Acetamiprid @ 200 ppm, 1 HAT) was 0%, the “Percent Mortality” value ([2]; Acetamiprid @ 200 ppm, 2 HAT) was 0% and the mortality at 100 ppm ([2]; 24 h, Acetamiprid @ 100 ppm, 1 DAT) was 16%. It also gave a mortality at 200 ppm ([2]; 24 h, Acetamiprid @ 200 ppm, 1 DAT) of 35%, a mortality at 100 ppm ([2]; 48 h, Acetamiprid @ 100 ppm, 2 DAT) of 78% and a mortality at 200 ppm ([2]; 48 h, Acetamiprid @ 200 ppm, 2 DAT) of 88%. It also gave a mortality at 100 ppm ([2]; Acetamiprid @ 100 ppm, 0 HAT) of 0% and a mortality at 200 ppm ([2]; Acetamiprid @ 200 ppm, 0 HAT) of 0%.

Work on `Cc1c(COC(=O)[C@@H]2[C@H](/C=C(\Cl)C(F)(F)F)C2(C)C)cccc1-c1ccccc1` (racemic) [Bifenthrin, bifenthrin] yielded a mortality at 60 ppm ([1]; 24 h, 1 DAT) of 6%, a mortality at 60 ppm ([1]; 72 h, 3 DAT) of 6% and a mortality at 60 ppm ([1]; 144 h, 6 DAT) of 11%. For the same compound, the mortality at 60 ppm ([1]; 192 h, 8 DAT) was 13%, the mortality at 60 ppm ([1]; 240 h, 10 DAT) was 13% and the mortality at 60 ppm ([1]; 312 h, 13 DAT) was 13%. It also gave a mortality at 60 ppm ([1]; 360 h, 15 DAT) of 16%, a mortality at 60 ppm ([1]; 408 h, 17 DAT) of 16% and a mortality at 60 ppm ([1]; 480 h, 20 DAT) of 16%. The mortality at 60 ppm ([1]; 528 h, 22 DAT) was 16%, the “Percent Mortality” value ([2]; Bifenthrin @ 10 ppm, 1 HAT) was 0% and the “Percent Mortality” value ([2]; Bifenthrin @ 10 ppm, 2 HAT) was 0%. For the same compound, the “Percent Mortality” value ([2]; Bifenthrin @ 50 ppm, 1 HAT) was 0%, the “Percent Mortality” value ([2]; Bifenthrin @ 50 ppm, 2 HAT) was 0% and the mortality at 10 ppm ([2]; 24 h, Bifenthrin @ 10 ppm, 1 DAT) was 11%. The mortality at 50 ppm ([2]; 24 h, Bifenthrin @ 50 ppm, 1 DAT) was 63%, the mortality at 10 ppm ([2]; 48 h, Bifenthrin @ 10 ppm, 2 DAT) was 26% and the mortality at 50 ppm ([2]; 48 h, Bifenthrin @ 50 ppm, 2 DAT) was 96%. It also gave a mortality at 10 ppm ([2]; Bifenthrin @ 10 ppm, 0 HAT) of 0% and a mortality at 50 ppm ([2]; Bifenthrin @ 50 ppm, 0 HAT) of 0%.
